Reference: patent US20220024921A1, “1,3,4-OXADIAZOLONE COMPOUND AND PHARMACEUTICAL” (NIPPON SHINYAKU CO., LTD., priority 2018, published 2022)
Counter-ions that a name gives are not always drawn.

How the values were obtained:
[1] = target: T1, PIM2 serine/threonine kinase (Homo sapiens, UniProt Q9P1W9); experiment: PIM2 serine/threonine kinase inhibitory effect; type: biochemical; conditions: PIM2 serine/threonine kinase activity; ATP 2 μM; 30° C., 30 minutes
T1 construct: purchased Carna Bioscience, Inc
Experimental: (§1) Each test substance was prepared to 10 mM with dimethylsulfoxide (DMSO), and further diluted with DMSO so as to have concentrations of 1000, 300, 100, 30, 10, 3, 1, 0.3, 0.1, 0.03, 0.01, and 0.001 μM. Moreover, each dilution was further diluted 33.3-fold with an assay buffer to prepare a test substance solution. The composition of the assay buffer was 50 mM HEPES (pH 7.0), 0.02% NaN3, 0.01% Bovine Serum Albumin, 0.1 mM Orthovanadate, 1 mM Dithiothreitol, and 5 mM MgCl2.
(§2) 5 μL of each test substance solution was added to 384-well plates (n=2), and then 2.5 μL of a substrate solution (substrate 3-biotin (Cisbio Bioassays SAS), final concentration in the reaction solution: 0.5 μM) and 2.5 μL of an ATP solution (in the cases of PIM1, 2, 3, the final concentrations in the reaction solutions were 40, 2, and 10 μM, respectively) were added, 5 μL of each of PIM1, 2, 3 serine/threonine kinase solutions (Carna Bioscience, Inc., the final concentrations in the reaction solutions were 0.15, 1.6, and 0.25 μg/ml, respectively) was finally added, and the mixture was reacted at 30° C. for 30 minutes. The test substance concentrations in the reaction solutions are 10000, 3000, 1000, 300, 100, 30, 10, 3, 1, 0.3, 0.1, and 0.01 nM.
(§3) Thereafter, 15 μL of each detection solution (62.5 nM Streptavidin-XL665 (Cisbio Bioassays SAS), […] STK antibody-Cryptate (Cisbio Bioassays SAS), 50 mM HEPES (pH 7.0), 0.8 M KF, 0.1% Bovine Serum Albumin, 20 mM ethylenediaminetetraacetic acid) was added to each well. After stirring, the mixture was reacted at 30° C. for 1 hour. Absorbance (OD620, OD665) at 620 and 665 nm was measured with a microplate reader (SpectraMax M5e, Molecular Devices, LLC).
(§4) Non-linear regression analysis was performed by an SAS system (SAS Institute Inc.) using the ratio (OD665/OD620) of the measured absorbance to calculate a test substance concentration (IC50) that inhibits PIM1 serine/threonine kinase activity by 50%.
(§5) For the compounds with the following Example numbers, in addition to the above PIM1 serine/threonine kinase activity (IC50), test substance concentrations (IC50) that inhibit PIM2 serine/threonine kinase activity and PIM3 serine/threonine kinase activity by 50% were calculated.

[2] = target: PIM1 transgenic cells (Ba/F3) (Homo sapiens, UniProt P11309); experiment: Proliferation inhibitory effect on PIM1 transgenic cells; type: cell-based, mouse; conditions: proliferation inhibition, 72 hours, Cell Counting Kit-8, read-out: PIM1 IC50
How it was run: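 Mouse Ba/F3 pro-B cells were retrovirally transduced with human PIM1 so that their proliferation depends on PIM1. Cells were treated with compound at 1–10000 nM final for 72 h, then read by CCK-8 (OD450−OD650). Inhibition was set against DMSO (0%) and no-cell blank (100%), and IC50 was obtained by two-parameter logistic regression.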

[3] = target: T2, PIM1 serine/threonine kinase (Homo sapiens, UniProt P11309); experiment: PIM1 serine/threonine kinase inhibitory effect; type: biochemical; conditions: PIM1 serine/threonine kinase activity; ATP 40 μM; 30° C., 30 minutes
T2 construct: purchased Carna Bioscience, Inc
How it was run: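 Recombinant PIM1 (0.15 μg/ml final) with 0.5 μM biotinylated substrate and 40 μM ATP in pH 7.0 HEPES/MgCl2 buffer, 30 min at 30° C. Compound range was 0.01–10000 nM final, n=2. HTRF detection with streptavidin-XL665 and anti-phospho antibody-cryptate, 1 h; IC50 from non-linear regression of the 665/620 ratio.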

[4] = target: T3, PIM3 serine/threonine kinase (Homo sapiens, UniProt Q86V86); experiment: PIM3 serine/threonine kinase inhibitory effect; type: biochemical; conditions: PIM3 serine/threonine kinase activity; ATP 10 μM; 30° C., 30 minutes
T3 construct: purchased Carna Bioscience, Inc
Experimental: as §1, §2, §3, §4, §5

[5] = system: graft-versus-host disease model CB6F1 mice; experiment: Lymphocyte proliferation inhibitory effect using graft-versus-host disease model animals (splenomegaly formation); type: in vivo; conditions: Mus musculus, 240 h, oral, twice a day for 10 days, GVHD model CB6F1 mice, read-out: Inhibition rate (%) (splenomegaly formation); for inhibition in vivo at 20 mg/kg: single dose 20 mg/kg; for inhibition in vivo at 6 mg/kg: single dose 6 mg/kg; for inhibition in vivo at 10 mg/kg: single dose 10 mg/kg; for inhibition in vivo at 30 mg/kg: single dose 30 mg/kg
Experimental: BALB/c mice (8-week-aged female) were euthanized, and then the spleen was removed from each mouse. Then, hemolysis treatment was performed to isolate spleen cells. The obtained spleen cells were intravenously transplanted into CB6F1 mice (8-week-aged female), which are C57BL/6 and BALB/c F1 mice, to prepare a model, and splenomegaly was induced. For transplantation, spleen cells for 1.2 BALB/c mouse were used for one CB6F1 mouse.
Each test substance shown in Table 64 was weighed and dissolved in a 0.5% methyl cellulose solution, thereby preparing test substance solutions of 0.3 to 10 mg/mL.
A vehicle (0.5% methyl cellulose solution) or test substance was orally administered to each CB6F1 mouse after transplantation at a dose of 3 to 50 mg/kg in terms of body weight twice a day for 10 days from the day after transplantation. The mouse was euthanized on the 11th day from the start of administration, then the spleen was removed therefrom, and the wet weight of the spleen was measured. For each of CB6F1 mice that had not undergone transplantation as a control group, the wet weight of the spleen was also measured.
The splenomegaly formation inhibition rate when the spleen weights of the mice to which the vehicle was administered after transplantation and the mice on which transplantation had not been performed were 0% and 100%, respectively, was calculated.

T1 sequence (Q9P1W9 whole entry): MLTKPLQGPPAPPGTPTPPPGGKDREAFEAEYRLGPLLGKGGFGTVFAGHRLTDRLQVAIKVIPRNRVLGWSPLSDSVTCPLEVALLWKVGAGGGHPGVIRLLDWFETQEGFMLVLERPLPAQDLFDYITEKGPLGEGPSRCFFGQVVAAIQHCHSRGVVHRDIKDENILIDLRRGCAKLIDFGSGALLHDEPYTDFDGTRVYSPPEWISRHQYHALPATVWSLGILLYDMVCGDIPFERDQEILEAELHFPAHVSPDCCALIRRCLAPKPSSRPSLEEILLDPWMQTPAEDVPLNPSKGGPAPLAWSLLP
PIM1 transgenic cells (Ba/F3), sequence (P11309 whole entry, stated change not applied): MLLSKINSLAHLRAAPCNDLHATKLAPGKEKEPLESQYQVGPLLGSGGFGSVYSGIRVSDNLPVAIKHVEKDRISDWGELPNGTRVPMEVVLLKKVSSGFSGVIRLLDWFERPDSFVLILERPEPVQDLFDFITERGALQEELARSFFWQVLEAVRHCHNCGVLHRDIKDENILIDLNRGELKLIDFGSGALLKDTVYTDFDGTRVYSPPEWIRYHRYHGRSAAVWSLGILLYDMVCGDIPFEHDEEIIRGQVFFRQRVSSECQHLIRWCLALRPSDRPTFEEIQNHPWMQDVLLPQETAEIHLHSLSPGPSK
T2 sequence (P11309 whole entry): as the sequence (P11309 whole entry, stated change not applied) above

Row | SMILES | IC50 [1] | GI50 [2] | IC50 [3] | IC50 [4] | inhibition in vivo at 20 mg/kg [5] | inhibition in vivo at 6 mg/kg [5] | inhibition in vivo at 10 mg/kg [5] | inhibition in vivo at 30 mg/kg [5] | inhibition in vivo at 50 mg/kg ([5]; single dose 50 mg/kg)
1 | NC[C@H]1CC[C@H](Nc2cc(-c3n[nH]c(=O)o3)ccc2C(F)(F)F)CC1 [Example 37, 5-[3-{[(1r,4r)-4-(aminomethyl)cyclohexyl]amino}-4-(trifluoromethyl)phenyl]-1,3,4-oxadiazol-2(3H)-one hydrochloride] | 11 nM | 280 nM | 2 nM | 10 nM |  |  |  |  | 
2 | NCc1cccc(-c2cc(-c3n[nH]c(=O)o3)ccc2Cl)c1 [Example 18, 5-[3′-(aminomethyl)-6-chloro[1,1′-biphenyl]-3-yl]-1,3,4-oxadiazol-2(3H)-one hydrochloride] | 220 nM |  | 64 nM | 340 nM |  |  |  |  | 
3 | Cc1c(F)cc(-c2n[nH]c(=O)o2)cc1N[C@@H](C)[C@H]1CC[C@H](N)CC1 [Example 172, 5-[3-({(1S)-1-[(1r,4S)-4-aminocyclohexyl]ethyl}amino)-5-fluoro-4-methylphenyl]-1,3,4-oxadiazol-2(3H)-one dihydrochloride] |  | 49 nM | 2.5 nM |  | 19.3% |  |  |  | 
4 | Cc1c(F)cc(-c2n[nH]c(=O)o2)cc1N[C@@H](C)[C@H]1CCNC[C@H]1C [Example 228] |  | 15 nM | 4.7 nM |  | 33.3% | 36.7% |  |  | 
5 | C[C@H](Nc1cc(-c2n[nH]c(=O)o2)cc(F)c1Cl)[C@H]1CC[C@H](N)CC1 [Example 177, 5-[3-({(1S)-1-[(1r,4S)-4-aminocyclohexyl]ethyl}amino)-4-chloro-5-fluorophenyl]-1,3,4-oxadiazol-2(3H)-one hydrochloride] |  | 26 nM | 0.8 nM |  | 39.2% |  | 23.7% |  | 
6 | C[C@H](Nc1cc(-c2n[nH]c(=O)o2)ccc1C(F)(F)F)C1(F)CCNCC1 [Example 125, 5-[3-{[(1S)-1-(4-fluoropiperidin-4-yl)ethyl]amino}-4-(trifluoromethyl)phenyl]-1,3,4-oxadiazol-2(3H)-one hydrochloride] |  | 40 nM | 2.9 nM |  |  |  |  | 45.1% | 
7 | C[C@H](Nc1cc(-c2n[nH]c(=O)o2)ccc1C(F)(F)F)[C@@H]1C[C@H](N)C1(C)C [Example 137, 5-[3-({(1S)-1-[(1R,3S)-3-amino-2,2-dimethylcyclobutyl]ethyl}amino)-4-(trifluoromethyl)phenyl]-1,3,4-oxadiazol-2(3H)-one hydrochloride] |  | 27 nM | 2.2 nM |  |  |  |  | 47.5% | 
8 | O=c1[nH]nc(-c2ccc(C(F)(F)F)c(-c3cncc(N4CCNCC4)c3)c2)o1 [Example 25, 5-{3-[5-(piperazin-1-yl)pyridin-3-yl]-4-(trifluoromethyl)phenyl}-1,3,4-oxadiazol-2(3H)-one dihydrochloride] | 770 nM |  | 180 nM | 740 nM |  |  |  |  | 
9 | Cc1c(F)cc(-c2n[nH]c(=O)o2)cc1N[C@@H](C)[C@H]1CCNC[C@H]1F [Example 227, 5-[3-fluoro-5-({(1S)-1-[(3S,4R)-3-fluoropiperidin-4-yl]ethyl}amino)-4-methylphenyl]-1,3,4-oxadiazol-2(3H)-one] |  | 24 nM | 7.7 nM |  | 32.7% | 16.7% |  |  | 
10 | C[C@H](Nc1cc(-c2n[nH]c(=O)o2)ccc1C(F)(F)F)[C@H]1CC[C@H](N)CC1 [Example 106, 5-[3-({(1S)-1-[(1r,4S)-4-aminocyclohexyl]ethyl}amino)-4-(trifluoromethyl)phenyl]-1,3,4-oxadiazol-2(3H)-one hydrochloride] |  | 19 nM | 1.5 nM |  |  |  |  | 39.8% | 
11 | C[C@@H]1CNCC[C@@H]1[C@H](C)Nc1cc(-c2n[nH]c(=O)o2)ccc1C(F)(F)F [Example 217, 5-[3-({(1S)-1-[(3S,4S)-3-methylpiperidin-4-yl]ethyl}amino)-4-(trifluoromethyl)phenyl]-1,3,4-oxadiazol-2(3H)-one] |  | 26 nM | 2.8 nM |  | 41.7% |  | 36.3% |  | 
12 | C[C@H](Nc1cc(-c2n[nH]c(=O)o2)cc(F)c1C(F)(F)F)[C@H]1CC[C@H](N)CC1 [Example 151, 5-[3-({(1S)-1-[(1r,4S)-4-aminocyclohexyl]ethyl}amino)-5-fluoro-4-(trifluoromethyl)phenyl]-1,3,4-oxadiazol-2(3H)-one hydrochloride] |  | 17 nM | 1.8 nM |  | 40.3% |  | 33.8% |  | 
13 | C[C@H](Nc1cc(-c2n[nH]c(=O)o2)cc(Br)c1Cl)C1CCNCC1 [Example 97, 5-(3-bromo-4-chloro-5-{[(1S)-1-(piperidin-4-yl)ethyl]amino}phenyl)-1,3,4-oxadiazol-2(3H)-one dihydrochloride] |  | 55 nM | 1.2 nM |  |  |  |  |  | 33%
14 | C[C@@H]1CNCC[C@@H]1[C@H](C)Nc1cc(-c2n[nH]c(=O)o2)cc(F)c1OC(F)F [Example 214, 5-[4-(difluoromethoxy)-3-fluoro-5-({(1S)-1-[(3S,4S)-3-methylpiperidin-4-yl]ethyl}amino)phenyl]-1,3,4-oxadiazol-2(3H)-one] |  | 34 nM | 1.8 nM |  | 25.3% |  | 23.3% |  | 
15 | CC[C@@H]1CNCC[C@@H]1[C@H](C)Nc1cc(-c2n[nH]c(=O)o2)cc(F)c1C [Example 229, 5-[3-({(1S)-1-[(3S,4S)-3-ethylpiperidin-4-yl]ethyl}amino)-5-fluoro-4-methylphenyl]-1,3,4-oxadiazol-2(3H)-one] |  | 19 nM | 5.1 nM |  | 35.1% | 14.4% |  |  | 
16 | C[C@H](Nc1cc(-c2n[nH]c(=O)o2)ccc1C(F)(F)F)[C@H]1C[C@@H](N)C1 [Example 145, 5-[3-({(1S)-1-[(1s,3R)-3-aminocyclobutyl]ethyl}amino)-4-(trifluoromethyl)phenyl]-1,3,4-oxadiazol-2(3H)-one hydrochloride] |  | 61 nM | 4 nM |  | 35.6% |  | 27.3% |  | 
